Molecular target: 5-hydroxytryptamine receptor 7 (Rattus norvegicus) (UniProt P32305)
Assay: Modulation of rat 5HT7 receptor by cAMP assay
Type: functional

Sequence of 5-hydroxytryptamine receptor 7 (Rattus norvegicus) (P32305 whole entry): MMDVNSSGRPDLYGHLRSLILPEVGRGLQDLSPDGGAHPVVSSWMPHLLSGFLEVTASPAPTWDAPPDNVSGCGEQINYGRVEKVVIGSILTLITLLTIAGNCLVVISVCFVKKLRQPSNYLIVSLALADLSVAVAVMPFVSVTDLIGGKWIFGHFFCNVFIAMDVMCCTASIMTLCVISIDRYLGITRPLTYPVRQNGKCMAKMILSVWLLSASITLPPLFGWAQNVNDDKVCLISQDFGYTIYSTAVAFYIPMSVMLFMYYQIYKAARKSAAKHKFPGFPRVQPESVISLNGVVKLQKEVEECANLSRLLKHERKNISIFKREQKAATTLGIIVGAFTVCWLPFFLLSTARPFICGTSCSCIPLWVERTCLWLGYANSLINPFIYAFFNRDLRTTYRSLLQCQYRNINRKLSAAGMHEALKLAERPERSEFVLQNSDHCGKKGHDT

Row | pKb | Compound
1 | 6.9 | Cc1nc(COc2ccc(Cl)cc2OC2CNC2)cs1
2 | 6.8 | C[C@@H](Oc1ccc(C(F)(F)F)cc1OC1CNC1)c1cccc(C(F)(F)F)c1
3 | 7.3 | FC(F)(COc1ccc(Cl)cc1OC1CNC1)c1ccccc1
4 | 7.5 | Clc1cccc(COc2ccc(Br)cc2OC2CNC2)c1

— ChEMBL document CHEMBL3259547, “Selective 5-HT Receptor Modulators May Deliver Focused Targeting with Fewer Adverse Effects” (ACS Med Chem Lett, 2014)
